Assay results: patent publication US20130123135A1, “Methods To Identify Modulators of TAS2R48 Receptors” (priority 2010, published 2013)
Read-outs that look alike come from different tables or passages of the source.

System: Sham transfected HEK293T/G16gust44 cells
Method: The above procedure was also carried out for HEK293T/G16gust44 cells, formed as described in WO 2004/055048 with the exception that no DNA was added during the process. These cells are termed Sham transfected cells.
On day 0, the HEK293T cells formed as described in example 2, were seeded in antibiotic-free growth medium (standard DMEM with 10% (v/v) heat-inactivated fetal bovine serum, 2 mM L-glutamine […], 100 units/ml penicillin, and 100 [g/ml streptomycin) into black wall/clear bottom 96-well plates, coated with poly(ethylenimine) (0.005% v/v) at a concentration of 15,000 cells per well and incubated for 48 hours in humidified atmosphere (37° C., 5% CO2).
Prior to performing the assay, the growth medium was discarded and the cells were left in a humidified atmosphere (37° C., 5% CO2) for 1 hour with 50 μl of loading buffer consisting of 1.5 μM Fluo-4 AM and […] probenicid (Sigma-Aldrich, St. Louis, Mo., US) in DMEM.
Following this the 96-well plate was washed 5 times with 100 μl of assay buffer (130 mM NaCl, 5 mM KCl, 10 mM 4-(2-hydroxyethyl)-1-piperazineethanesulfonic acid (HEPES), 2 mM CaCl2, and 5 mM dextrose, pH 7.4) per well, using an automated plate washer (BioTek).
The plate was then further incubated for 30 minutes at room temperature in the dark to allow for complete de-esterification of the Fluo-4. Afterwards the plate was washed 5 times with 100 μl of assay buffer per well, and reconstituted with 100 μl of assay buffer per well.
Cyclamate solutions ranging in concentration from 250 mM to 800 mM were prepared in assay buffer.
To test receptor activation 20 μl of one of these cyclamate test solutions was added to the assay buffer of at least one well of the 96 well plate. This step was repeated until all cyclamate solutions of differing concentrations had been added to at least one well. Care was taken to ensure that only one cyclamate solution was added per well. The resulting cyclamate concentrations in the well plates ranged in concentration from 25 mM to 80 mM (This is due to the dilution of the cyclamate solution in the assay buffer present in the well).
For assay reading, the plate was placed in a Fluorometric Imaging Plate Reader (FLIPR) (FLIPR-TETRA™, Molecular Devices, Sunnyvale, Calif., US).
For each well of the plate fluorescence was continuously monitored for 20 seconds to give a signal baseline (averaged to give F0) prior to cyclamate addition and for 120 seconds after cyclamate addition. The change in signal divided by F0 gives ΔF/F0 indicated in the table, with ΔF being the maximum signal occurring within the 120 seconds minus the minimum signal (occurring within the 120 seconds after cyclamate addition.
As a control the above procedure was also carried out for the sham transfected cells formed as described in example 2.

## O=S(=O)(O)NC1CCCCC1 [Cyclamate, cyclamate]
Cyclamate 25 mM in well
  Cyclamate Average ΔF/F0, Sham Transfected: 0.186
Cyclamate 30 mM in well
  Cyclamate Average ΔF/F0, Sham Transfected: 0.182
Cyclamate 35 mM in well
  Cyclamate Average ΔF/F0, Sham Transfected: 0.198
Cyclamate 40 mM in well
  Cyclamate Average ΔF/F0, Sham Transfected: 0.204
Cyclamate 45 mM in well
  Cyclamate Average ΔF/F0, Sham Transfected: 0.194
Cyclamate 50 mM in well
  Cyclamate Average ΔF/F0, Sham Transfected: 0.2
Cyclamate 55 mM in well
  Cyclamate Average ΔF/F0, Sham Transfected: 0.182
Cyclamate 60 mM in well
  Cyclamate Average ΔF/F0, Sham Transfected: 0.16
Cyclamate 65 mM in well
  Cyclamate Average ΔF/F0, Sham Transfected: 0.17
Cyclamate 70 mM in well
  Cyclamate Average ΔF/F0, Sham Transfected: 0.14
Cyclamate 75 mM in well
  Cyclamate Average ΔF/F0, Sham Transfected: 0.11
Cyclamate 80 mM in well
  Cyclamate Average ΔF/F0, Sham Transfected: 0.178
